Target: T1, L-type amino acid transporter 1 (LAT-1/SLC7A5) (Homo sapiens, UniProt Q01650)
T1 construct: with CD98 (4F2hc; SLC3A2, also printed as SLC2A3)
Assay: inhibition of [[…]6, […]]-L-leucine uptake in hCMEC/D3 cells, UPLC-MS/MS
Format: cell-based

T1 sequence (Q01650 whole entry): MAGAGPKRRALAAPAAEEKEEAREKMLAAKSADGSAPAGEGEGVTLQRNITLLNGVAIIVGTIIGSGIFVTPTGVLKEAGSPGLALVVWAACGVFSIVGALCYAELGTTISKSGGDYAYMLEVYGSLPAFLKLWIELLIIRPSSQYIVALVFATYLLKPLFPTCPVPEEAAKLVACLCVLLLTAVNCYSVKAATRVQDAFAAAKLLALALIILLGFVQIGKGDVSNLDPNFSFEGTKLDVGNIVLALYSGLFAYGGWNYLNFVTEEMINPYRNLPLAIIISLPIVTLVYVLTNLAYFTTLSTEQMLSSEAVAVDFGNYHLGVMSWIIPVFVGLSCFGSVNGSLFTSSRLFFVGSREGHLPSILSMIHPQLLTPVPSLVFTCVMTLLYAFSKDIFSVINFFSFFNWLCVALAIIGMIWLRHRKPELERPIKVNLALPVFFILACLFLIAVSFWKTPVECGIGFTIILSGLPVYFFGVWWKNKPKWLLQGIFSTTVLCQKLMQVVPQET
T1 sequence (P08195 103-630 partner): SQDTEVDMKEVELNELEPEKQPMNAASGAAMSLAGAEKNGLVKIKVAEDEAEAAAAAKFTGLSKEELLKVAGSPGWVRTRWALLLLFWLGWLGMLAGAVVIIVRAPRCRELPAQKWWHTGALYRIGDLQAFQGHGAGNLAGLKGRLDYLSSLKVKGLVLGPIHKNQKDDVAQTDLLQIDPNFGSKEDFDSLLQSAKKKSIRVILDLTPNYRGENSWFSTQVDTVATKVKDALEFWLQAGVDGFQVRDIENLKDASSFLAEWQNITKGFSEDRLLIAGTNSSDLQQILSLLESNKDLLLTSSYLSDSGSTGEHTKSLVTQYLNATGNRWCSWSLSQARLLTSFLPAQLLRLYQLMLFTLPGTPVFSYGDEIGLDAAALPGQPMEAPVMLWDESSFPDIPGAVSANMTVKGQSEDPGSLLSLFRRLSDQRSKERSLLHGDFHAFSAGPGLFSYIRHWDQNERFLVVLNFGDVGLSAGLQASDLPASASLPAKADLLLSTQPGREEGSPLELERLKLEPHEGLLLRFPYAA

Row | SMILES | IC50
1 | NC1(C(=O)O)CC2CCC1C2 (centres unmarked) [BCH, 2-aminobicyclo-(2,2,1)-heptane-2-carboxylic acid] | 91 ± 39 µM
2 | Nc1cc(COc2c(Cl)cc(C[C@H](N)C(=O)O)cc2Cl)c2oc(-c3ccccc3)nc2c1 [JPH203] | 0.103 ± 0.015 µM
